Data as given in patent publication US20080194616A1, “PYRIDOPYRIMIDINONE COMPOUNDS USEFUL IN TREATING SODIUM CHANNEL-MEDIATED DISEASES OR CONDITIONS” (Xenon Pharmaceuticals Inc., priority 2007, published 2008).
Where a name gives a salt, the structure may show the parent alone.

Columns and labels:
sodium channel = assay: Guanidine Influx Assay (In Vitro Assay); assay type: cell-based, human or rat; conditions: known cell line that expresses a sodium channel; read-out: IC50 Activity Level
Description: This example describes an in vitro assay for testing and profiling test agents against human or rat sodium channels stably expressed in cells of either an endogenous or recombinant origin. The assay is also useful for determining the IC-50 of a sodium channel blocking compound. The assay is based on the guanidine flux assay described by Reddy, N. L., et al., J. Med. Chem. (1998), 41(17):3298-302.
The guanidine influx assay is a radiotracer flux assay used to determine ion flux activity of sodium channels in a high-throughput microplate-based format. The assay uses ^14C-guanidine hydrochloride in combination with various known sodium channel modulators, to assay the potency of test agents. Potency is determined by an IC-50 calculation. Selectivity is determined by comparing potency of the compound for the channel of interest to its potency against other sodium channels (also called ‘selectivity profiling’).
Each of the test agents is assayed against cells that express the channels of interest. Voltage gated sodium channels are either TTX sensitive or insensitive. This property is useful when evaluating the activities of a channel of interest when it resides in a mixed population with other sodium channels. The following Table 1 summarizes cell lines useful in screening for a certain channel activity in the presence or absence of TTX.
Cells expressing the channel of interest are grown according to the supplier or in the case of a recombinant cell in the presence of selective growth media such as G418 (Gibco/Invitrogen). The cells are disassociated from the culture dishes with an enzymatic solution (1×) Trypsin/EDTA (Gibco/Invitrogen) and analyzed for density and viability using haemocytometer (Neubauer). Disassociated cells are washed and resuspended in their culture media then plated into Scintiplates (Beckman Coulter Inc.) (approximately 100,000 cells/well) and incubated at 37° C./5% CO2. for 20-24 hours. After an extensive wash with Low sodium HEPES-buffered saline solution (LNHBSS) (150 mM Choline Chloride, […] (Sigma), 1 mM Calcium Chloride, 5 mM Potassium Chloride, 1 mM Magnesium Chloride, 10 mM Glucose) agents diluted with LNHBSS are added to each well. (Varying concentrations of test agent may be used). The activation/radiolabel mixture contains aconitine (Sigma), and ^14C-guanidine hydrochloride (ARC).
After loading the cells with test agent and activation/radiolabel mixture, the Scintiplates are incubated at ambient temperature. Following the incubation, the Scintplates are extensively washed with LNHBSS supplemented with guanidine (Sigma). The Scintiplates are dried and then counted using a Wallac MicroBeta TriLux (Perkin-Elmer Life Sciences). The ability of the test agent to block sodium channel activity is determined by comparing the amount of ^14C-guanidine present inside the cells expressing the different sodium channels.
IC-50 value of a test agent for a specific sodium channel may be determined using the above general method. IC-50 may be determined using a 3,8,10,12 or 16 point curve in duplicate or triplicate with a starting concentration of 1, 5 or 10 μM diluted serially with a final concentration reaching the sub-nanomolar, nanomolar and low micromolar ranges. Typically the mid-point concentration of test agent is set at 1 μM, and sequential concentrations of half dilutions greater or smaller are applied (e.g. 0.5 μM; […] and 0.25 μM; 10 μM and 0.125 μM; 20 μM etc.). The IC-50 curve is calculated using the 4 Parameter Logistic Model or Sigmoidal Dose-Response Model formula (fit=(A+((B−A)/(1+((C/x)̂D)))).

| melting point | IC50 (sodium channel) | Compound |
| --- | --- | --- |
| 232 to 236 °C | ≥ 10 µM | CC(C)c1nc2ccccn2c(=O)c1-c1ccc(N[C@@H]2CCN(C(=O)OC(C)(C)C)C2)cc1 (stereo in doubt) [Example 3.6, tert-butyl 3-({4-[2-(1-methylethyl)-4-oxo-4H-pyrido[1,2-a]pyrimidin-3-yl]phenyl}amino)pyrrolidine-1-carboxylate] |
| 98 to 100 °C | ≥ 10 µM | CC(C)c1nc2ccccn2c(=O)c1-c1ccc(Cl)cc1 [Example 1.5, 3-(4-chlorophenyl)-2-(1-methylethyl)-4H-pyrido[1,2-a]pyrimidin-4-one] |
| 95 to 97 °C | 0.1 to 1 µM | CCCCc1nc2ccccn2c(=O)c1-c1ccc(N)cc1 [Example 1.14, 2-butyl-3-(4-aminophenyl)-4H-pyrido[1,2-a]pyrimidin-4-one] |
| – | ≥ 10 µM | CCCCc1nc2ccccn2c(=O)c1-c1ccc(N[C@@H]2CCCNC2)cc1 [Example 6.2, (R)-2-butyl-3-{4-[piperidin-3-ylamino]phenyl}-4H-pyrido[1,2-a]pyrimidin-4-one hydrochloride] |
| – | ≥ 10 µM | Cc1nc2ccccn2c(=O)c1-c1ccc(N[C@@H]2CCNC2)cc1 [Example 6.3, (R)-2-methyl-3-(4-(pyrrolidin-3-ylamino)phenyl)-4H-pyrido[1,2-a]pyrimidin-4-one hydrochloride] |
| – | ≥ 10 µM | CCc1nc2ccccn2c(=O)c1-c1ccc(N[C@@H]2CCNC2)cc1 [Example 6.4, (R)-2-ethyl-3-(4-(pyrrolidin-3-ylamino)phenyl)-4H-pyrido[1,2-a]pyrimidin-4-one hydrochloride] |
| – | ≥ 10 µM | CCCc1nc2ccccn2c(=O)c1-c1ccc(N[C@@H]2CCNC2)cc1 [Example 6.5, (R)-2-propyl-3-(4-(pyrrolidin-3-ylamino)phenyl)-4H-pyrido[1,2-α]pyrimidin-4-one hydrochloride] |
| – | ≥ 10 µM | CCCCc1nc2ccc(C)cn2c(=O)c1-c1ccc(N[C@@H]2CCNC2)cc1 [Example 6.6, (R)-2-butyl-7-methyl-3-{4-[pyrrolidin-3-ylamino]phenyl}-4H-pyrido[1,2-a]pyrimidin-4-one hydrochloride] |
| – | ≥ 10 µM | CCCCc1nc2ccc(F)cn2c(=O)c1-c1ccc(N[C@@H]2CCNC2)cc1 [Example 6.7, (R)-2-butyl-7-fluoro-3-{4-[pyrrolidin-3-ylamino]phenyl}-4H-pyrido[1,2-a]pyrimidin-4-one hydrochloride] |
| – | ≥ 10 µM | CCCCc1nc2cc(C(F)(F)F)ccn2c(=O)c1-c1ccc(N[C@@H]2CCNC2)cc1 [Example 6.8, (R)-2-butyl-3-{4-[pyrrolidin-3-ylamino]phenyl}-8-(trifluoromethyl)-4H-pyrido[1,2-a]pyrimidin-4-one hydrochloride] |
| – | ≥ 10 µM | CCCCc1nc2c3ccccc3ccn2c(=O)c1-c1ccc(N[C@@H]2CCNC2)cc1 [Example 6.9, (R)-2-butyl-3-{4-[pyrrolidin-3-ylamino]phenyl}-4H-pyrimido[2,1-a]isoquinolin-4-one hydrochloride] |
| – | ≥ 10 µM | CCCCc1nc2ccccn2c(=O)c1-c1ccc(NC2CCNC2)cc1 (stereo not drawn) [Example 7, 2-butyl-3-(4-(pyrrolidin-3-ylamino)phenyl)-4H-pyrido[1,2-a]pyrimidin-4-one hydrochloride] |
| – | ≥ 10 µM | CCCCc1nc2ccccn2c(=O)c1-c1ccc(N[C@H]2CCNC2)cc1 [Example 7.1, (S)-2-butyl-3-{4-[pyrrolidin-3-ylamino]phenyl}-4H-pyrido[1,2-a]pyrimidin-4-one hydrochloride] |
| – | ≥ 10 µM | CCCCc1nc2ccccn2c(=O)c1-c1ccc(N[C@@H]2CCNC2)c(F)c1 [Example 7.2, (R)-2-butyl-3-{3-fluoro-4-[(pyrrolidin-3-ylamino]phenyl}-4H-pyrido[1,2-a]pyrimidin-4-one hydrochloride] |
| – | ≥ 10 µM | CCCCc1nc2ccccn2c(=O)c1-c1ccc(N[C@@H]2CCNC2)cc1C [Example 7.3, (R)-2-butyl-3-{2-methyl-4-[pyrrolidin-3-ylamino]phenyl}-4H-pyrido[1,2-a]pyrimidin-4-one hydrochloride] |
| – | ≥ 10 µM | CCCCc1nc2ccccn2c(=O)c1-c1cccc(NC2CCNC2)c1 (stereo not drawn) [Example 7.4, 2-butyl-3-[3-(pyrrolidin-3-ylamino)phenyl]-4H-pyrido[1,2-a]pyrimidin-4-one hydrochloride] |
| – | ≥ 10 µM | CC(C)c1nc2ccccn2c(=O)c1-c1ccc(NC2CCNC2)cc1 (stereo not drawn) [Example 7.5, 2-(1-methylethyl)-3-[4-(pyrrolidin-3-ylamino)phenyl]-4H-pyrido[1,2-a]pyrimidin-4-one hydrochloride] |
| – | ≥ 10 µM | CC(C)CCc1nc2ccccn2c(=O)c1-c1ccc(N[C@@H]2CCNC2)cc1 [Example 7.6, (R)-2-isopentyl-3-(4-(pyrrolidin-3-ylamino)phenyl)-4H-pyrido[1,2-a]pyrimidin-4-one hydrochloride] |
| – | 0.1 to 1 µM | O=c1c(-c2ccc(N[C@@H]3CCNC3)cc2)c(CCC2CC2)nc2ccccn12 [Example 7.7, (R)-2-(2-cyclopropylethyl)-3-(4-(pyrrolidin-3-ylamino)phenyl)-4H-pyrido[1,2-a]pyrimidin-4-one hydrochloride] |
| – | ≥ 10 µM | CCCNc1nc2ccccn2c(=O)c1-c1ccc(NC2CCNC2)cc1 (stereo not drawn) [Example 7.8, 2-(propylamino)-3-[4-(pyrrolidin-3-ylamino)phenyl]-4H-pyrido[1,2-a]pyrimidin-4-one hydrochloride] |
| – | ≥ 10 µM | CC(C)Nc1nc2ccccn2c(=O)c1-c1ccc(NC2CCNC2)cc1 (stereo not drawn) [Example 7.9, 2-[(1-methylethyl)amino]-3-[4-(pyrrolidin-3-ylamino)phenyl]-4H-pyrido[1,2-a]pyrimidin-4-one hydrochloride] |
| – | ≥ 10 µM | CC(C)Nc1nc2ccccn2c(=O)c1-c1ccc(N[C@@H]2CCNC2)cc1 [Example 7.10, (R)-2-[(1-methylethyl)amino]-3-{4-[pyrrolidin-3-ylamino]phenyl}-4H-pyrido[1,2-a]pyrimidin-4-one hydrochloride] |
| – | ≥ 10 µM | O=c1c(-c2ccc(N[C@@H]3CCNC3)cc2)c(N2CCCC2)nc2ccccn12 [Example 7.11, (R)-2-pyrrolidin-1-yl-3-{4-[pyrrolidin-3-ylamino]phenyl}-4H-pyrido[1,2-a]pyrimidin-4-one hydrogen chloride] |
| – | ≥ 10 µM | CCCCc1nc2ccccn2c(=O)c1-c1ccc2c(c1)CCN2C1CCNC1 (stereo not drawn) [Example 7.12, 2-butyl-3-(1-(pyrrolidin-3-yl)indolin-5-yl)-4H-pyrido[1,2-a]pyrimidin-4-one hydrochloride] |
| – | ≥ 10 µM | CCCCc1nc2ccccn2c(=O)c1-c1ccc(N2CCNCC2)nc1 [Example 7.13, 2-butyl-3-(6-piperazin-1-ylpyridin-3-yl)-4H-pyrido[1,2-a]pyrimidin-4-one hydrochloride] |
| – | ≥ 10 µM | COc1nc2ccccn2c(=O)c1-c1ccc(NC2CCNC2)cc1 (stereo not drawn) [Example 9, 2-methoxy-3-[4-(pyrrolidin-3-ylamino)phenyl]-4H-pyrido[1,2-a]pyrimidin-4-one trifluoroacetate] |
| – | ≥ 10 µM | CCCOc1nc2ccccn2c(=O)c1-c1ccc(N[C@@H]2CCNC2)cc1 [Example 9.1, (R)-2-propoxy-3-(4-(pyrrolidin-3-ylamino)phenyl)-4H-pyrido[1,2-a]pyrimidin-4-one trifluoroacetate] |
| – | ≥ 10 µM | CCCCc1nc2ccccn2c(=O)c1-c1ccc(OS(=O)(=O)C(F)(F)F)cc1 [Example 12, 4-(2-butyl-4-oxo-4H-pyrido[1,2-a]pyrimidin-3-yl)phenyl trifluoromethanesulfonate] |
| – | ≥ 10 µM | CCCCc1nc2ccc(Cl)cn2c(=O)c1-c1ccc(O)cc1 [Example 13, 2-butyl-7-chloro-3-(4-hydroxyphenyl)-4H-pyrido[1,2-a]pyrimidin-4-one] |
| – | ≥ 10 µM | CCCCc1nc2ccccn2c(=O)c1-c1ccc(O[C@@H]2CCNC2)cc1 [Example 15, (R)-2-butyl-3-{4-[pyrrolidin-3-yloxy]phenyl}-4H-pyrido[1,2-a]pyrimidin-4-one hydrochloride] |
